Reference: PubChem BioAssay (NCI)
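GI50: concentration for 50% inhibition of growth. TGI is the concentration that stops growth completely.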

Columns and labels:
Assay in all cases: NCI tumour cell line growth inhibition, 384-well format
HL-60(TB) leukemia = system: HL-60(TB) leukemia
HS 578T breast = system: HS 578T breast
K-562 leukemia = system: K-562 leukemia
MALME-3M melanoma = system: MALME-3M melanoma
MDA-MB-468 breast = system: MDA-MB-468 breast
MOLT-4 leukemia = system: MOLT-4 leukemia
NCI-H522 lung = system: NCI-H522 lung
OVCAR-5 ovarian = system: OVCAR-5 ovarian
PC-3 prostate = system: PC-3 prostate
SF-295 CNS = system: SF-295 CNS
SNB-75 CNS = system: SNB-75 CNS
T-47D breast = system: T-47D breast
TK-10 renal = system: TK-10 renal

With `NC1(c2ccc(-c3nc4ccn5c(=O)[nH]nc5c4cc3-c3ccccc3)cc2)CCC1` the GI50 (HL-60(TB) leukemia) was 1920 nM, the TGI (HL-60(TB) leukemia) was 3360 nM and the GI50 (HS 578T breast) was 704 nM. It also gave a TGI (HS 578T breast) of 2170 nM, a GI50 (K-562 leukemia) of 1590 nM and a TGI (K-562 leukemia) of 3030 nM. The GI50 (MALME-3M melanoma) was 683 nM, the TGI (MALME-3M melanoma) was 2210 nM and the GI50 (MDA-MB-468 breast) was 48.3 nM. It also gave a TGI (MDA-MB-468 breast) of 514 nM, a GI50 (MOLT-4 leukemia) of 131 nM and a TGI (MOLT-4 leukemia) of 632 nM. For the same molecule, the GI50 (NCI-H522 lung) was 2390 nM, the TGI (NCI-H522 lung) was 6500 nM and the GI50 (OVCAR-5 ovarian) was 2130 nM. The TGI (OVCAR-5 ovarian) was 7160 nM, the GI50 (PC-3 prostate) was 139 nM and the TGI (PC-3 prostate) was 3210 nM. The GI50 (SF-295 CNS) was 1340 nM, the TGI (SF-295 CNS) was 2720 nM and the GI50 (SNB-75 CNS) was 239 nM. The TGI (SNB-75 CNS) was 1780 nM, the GI50 (T-47D breast) was 27.2 nM and the TGI (T-47D breast) was 629 nM. The GI50 (TK-10 renal) was 1340 nM and the TGI (TK-10 renal) was 3900 nM.
